Entries after “also recorded” stand apart in the source; their conditions may differ.
Legend:
naïve rats = experiment: EPO+MLT regimen in naïve neonatal rats, unanticipated effects; format: in vivo, rat; conditions: doses administered the same time of day
Description: To test if EPO+MLT could prevent the onset of PHHP, on P2 CAM+IVH rats were randomized to receive either EPO+MLT or vehicle from P2 (equivalent to approximately 32 weeks human gestation) to P10 (full term in humans). Six doses of EPO (2500 U/kg/dose i.p.) or vehicle were administered on P2-P5, P7 and P9. Nine doses of MLT (20 mg/kg/dose i.p.) or vehicle were administered on P2-P10. A subset of 36 CAM-IVH pups were randomized to receive vehicle, EPO alone, MLT alone, or EPO+MLT to test impact of treatment on macrocephaly. […] To determine if EPO+MLT had any unanticipated effect on normal neurodevelopment, a set of naïve pups underwent EPO+MLT treatment.
Neurodevelopmental battery included nine tests (surface righting, negative geotaxis, cliff aversion, forelimb grasp, audio startle, eye opening, ear twitch, forelimb placement, and air righting) (Farkas et al., 2009; Bahamoori et al., 2012). Since no differences with audio startle or eye opening were noted across groups, these two tests were not included for naïve rats. Observers blinded to injury and treatment group tested 146 rats each day from P4 to P15, and then at P21.
To determine if the progressive macrocephaly and poor cliff aversion performance observed in CAM-IVH rats was preventable, we assessed the efficacy of combined EPO+MLT treatment in the neonatal period in a separate cohort of rats (n=88). […]

[1] = system: rats with PCL syndrome (LPS plus Poly IC); experiment: Nociception (mechanical allodynia, thermal hypersensitivity) in Post-COVID Like (PCL) model; format: in vivo, rat; conditions: chronic pain lasting greater than 2 months
Description: LPS (3 mg/kg ip) is given to prime the immune system of rats on postnatal (P) 45, 46 and P47. Subsequently, Poly IC (2, 3, or 5 mg/kg ip) is given on P55 to mimic a viral exposure. The response to these stimuli are studied in the following acute, subacute and chronic timepoints. Pain and activity in an open field are outcome measures we use routinely to track the development of the PCL syndrome.
For experimental design and development of pel syndrome with cognitive assessment, LPS (3 mg/kg ip) is given to prime the immune system of rats on postnatal (P) 45, 46 and P47. Subsequently, Poly IC (5 mg/kg ip) is given on P55 to mimic a viral exposure. The response to these stimuli are studied in the following acute, subacute and chronic timepoints. Pain and Activity in an Open Field are outcome measures we use routinely to track the development of the PCL syndrome. Similarly, Touchscreen cognitive assessment occurs simultaneously throughout the Acute, SubAcute and Chronic Phases. Using a touchscreen assessment platform, we first assess visual discrimination. We then assess cognitive flexibility through a test of reversal learning, and then a test of attention called 5 choice serial reaction (5CSRTT).
After priming the immune system with systemic lipopolysaccharide (LPS) on postnatal day 45-47, rats receive the viral mimetic poly(I:C) on P55.

CAM-IVH rats = experiment: Intra-aural distance (macrocephaly) in CAM-IVH model of PHHP; format: in vivo, rat; conditions: treatment P2-P10, followed through P21
Description: For each experiment with a statistical analysis, a power analysis was performed to estimate the required sample size (G*Power 3.1.9.3). We used preliminary and published data to estimate means and standard deviations for each group for the primary outcomes of intra-aural distance, ventriculomegaly, neurodevelopmental assessment, qPCR, and DTI analyses (Farkas et al., 2009; Yung et al., 2011; Baharnoori et al., 2012; Jantzie et al., 2014a,b, 2018; Robinson et al., 2016). Scanning electron microscopy qualitative analysis of EMC was set a priori as two per group. Primary endpoints were set a priori as described in the text, and were daily (P4-P15 and P21) for IAD and neurodevelopment, P5 for ventriculomegaly, P15 for periventricular YAP mRNA, and P21 for remaining assays. No animals were individually excluded except, as noted in the text, those who were removed prior to P21 due to poor health. DTI images from one rat were excluded due to poor image acquisition quality prior to quantification. Rats from both institutions and at least two separate litters were used for all experiments, except rats for SEM were prepared at one institution. Rats from both sexes were randomly assigned to injury (CAM versus sham at E18, IVH versus vehicle at P1) and to treatment group (EPO+MLT or vehicle on P2 for CAM-IVH rats). […]

rats with PCL syndrome = experiment: Diffusion tensor imaging in PCL model; format: in vivo, rat; conditions: 11.7T MRI
Description: Diffusion Tensor Imaging was performed on an 11.7T Bruker MRI scanner. These images were processed to assign directional colors ([…] transverse, blue vertical, and green orthogonal to the plane).

PBMCs = experiment: PBMC secretome after buprenorphine stimulation in culture; conditions: P21 PBMCs, 3 h culture; EPO 10 U/mL + MLT 20 μM; naloxone 10 μM
[2] = system: patients (adult traumatic brain injury; pediatric and neonatal trials); conditions: cited from earlier work
[3] = system: rats with prenatal injury (TSHI plus intra-amniotic LPS); experiment: Open field after prenatal injury (chorioamnionitis model of cerebral palsy); format: in vivo, rat; conditions: P28-P30 open field
Excerpt: As placental structure and function is of significant clinical importance to neurologic sequelae in preterm survivors (59-61), we use a prenatal model of in utero transient systemic HI (TSHI) and intra-amniotic lipopolysaccharide (LPS) administration in pregnant rats (62-64). This approach capitalizes on an intact maternal-placental-fetal unit and is a model of PBI from extreme preterm birth (<28 weeks of gestation) that mimics dual intrauterine injury from placental underperfusion and chorioamnionitis (65). Briefly, under isoflurane anesthesia, a laparotomy is performed on embryonic day (E) 18. Uterine arteries are clamped for 60 min and followed by intra-amniotic injections of LPS (4 μg/sac; 0111:B4, Sigma, St. Louis, MO, USA) (62, 64, 65). Sham controls undergo anesthesia and laparotomy for 60 min without arterial clamping or LPS injections. Following closure of the laparotomy, dams receive narcotic pain medication, recover, and pups are born vaginally at E22, approximately equal to 30-32 weeks in human gestation. We have previously reported the effects of TSHI and LPS alone, and in concert, on CNS pathological hallmarks, functional motor outcomes, histologic placental injury, and expression of common pro-inflammatory cytokines (63, 64).
When EPO was administered in isolation, it was given from P1 to P5 at 2,000 U/kg/dose as previously published (47, 48, 54, 55, 71, 72). […]

Compound	impact on the circadian rhythm (naïve rats)	chronic thermal hypersensitivity [1]	intra-aural distance (IAD), progressive macrocephaly (CAM-IVH rats)	white matter microstructural integrity (directional color DTI) (rats with PCL syndrome)	secretion of interferon gamma and IL-6 by PBMCs treated with buprenorphine (PBMCs)	adverse events in pediatric and neonatal EPO trials ([2]; high-dose, extended EPO regimens)	adverse events in meta-analyses of EPO for severe adult traumatic brain injury ([2]; versus placebo)	disinhibition (open field) [3]
COc1ccc2[nH]cc(CCNC(C)=O)c2c1 [MLT, N-acetyl-5-methoxytryptamine]	no impact was evident	neither ROX nor MLT alone	the IADs were not significantly different compared littermates that received vehicle	the microstructural integrity is altered and the colors are muted				
C=CCN1CC[C@]23c4c5ccc(O)c4O[C@H]2C(=O)CC[C@@]3(O)[C@H]1C5 [naloxone]					blocked the secretion of these proinflammatory mediators			
EPO: erythropoietin compound or erythropoietin, in particular human recombinant erythropoietin			the IADs were not significantly different compared littermates that received vehicle			no adverse events have emerged with high-dose, extended EPO regimens in neonatal trials	no adverse events were evident compared to placebo treatment	does not; also recorded: did not improve disinhibition
